The values below are quoted from earlier work in paper PMC7287799 (Molecules, 2020).

The series concerns E. coli IMPDH.

As a reminder, the Ki is a measure of affinity in units of concentration, obtained from inhibition or displacement. Consider `NC(=O)c1ncn([C@@H]2O[C@H](CO)[C@@H](O)[C@H]2O)c1O` [Mizoribine], for which the Ki is 500 nM.
